Data as given in US12544375B2, “Small molecule therapeutic for parkinson's disease paired with a biomarker of therapeutic activity” (The Board of Trustees of the Leland Stanford Junior …, priority 2019, dated 2026).

Target: T1, Miro2 (Homo sapiens, UniProt Q8IXI1)
T1 construct: Miro1 Reducer had no influence on Miro2 in either healthy or PD cells; endogenous in cells; host or cells: human skin fibroblasts (Healthy-1, PD-2)
Experiment: Miro2 response to CCCP in fibroblasts, Western blotting
Assay type: cell-based
Settings: healthy or PD cells, CCCP 6 hrs
Protocol: FIG. 2A-FIG. 2F. Miro1 Reducer Eliminates the Miro1 Defect in PD Fibroblasts. (FIG. 2A) Chemical properties of Miro1 Reducer. (FIG. 2B) Wild-type flies (w^1118) were fed with DMSO alone (0 μM Miro1 Reducer) or Miro1 Reducer in DMSO at 250 μM for 7 days, and lysed and blotted as indicated. The band intensities are normalized to those of Tubulin from the same blots. n=4. (FIG. 2C-FIG. 2E) Fibroblasts were treated, lysed, and blotted as indicated. (FIG. 2C) Band intensities are normalized to those of GAPDH from the same blots and compared to “Healthy-1, no treatment” except otherwise indicated. n=4. (FIG. 2D) Band intensities are normalized to those of ATP5β from the same blots and expressed as a percentage of the mean of “0 μM Miro1 Reducer with CCCP”. Mean±S.E.M is shown. n=3. (FIG. 2E) Band intensities are normalized to those of GAPDH from the same blots and compared to “Healthy-1, no CCCP, no MG132” except otherwise indicated. n=4. (FIG. 2F) Healthy-1 and PD-2 fibroblasts were transfected as indicated, and immunostained with anti-Myc (Miro1, green) and stained with Dapi (blue). The Miro1 intensity is normalized to that of mito-dsRed from the same cell and quantified across 37-62 cells from 5 fields each transfection, 3 independent transfections. Scale bars: 50 μm. For (FIG. 2C-FIG. 2F), both CCCP and Miro1 Reducer were dissolved in DMSO. […]

T1 sequence (Q8IXI1 whole entry): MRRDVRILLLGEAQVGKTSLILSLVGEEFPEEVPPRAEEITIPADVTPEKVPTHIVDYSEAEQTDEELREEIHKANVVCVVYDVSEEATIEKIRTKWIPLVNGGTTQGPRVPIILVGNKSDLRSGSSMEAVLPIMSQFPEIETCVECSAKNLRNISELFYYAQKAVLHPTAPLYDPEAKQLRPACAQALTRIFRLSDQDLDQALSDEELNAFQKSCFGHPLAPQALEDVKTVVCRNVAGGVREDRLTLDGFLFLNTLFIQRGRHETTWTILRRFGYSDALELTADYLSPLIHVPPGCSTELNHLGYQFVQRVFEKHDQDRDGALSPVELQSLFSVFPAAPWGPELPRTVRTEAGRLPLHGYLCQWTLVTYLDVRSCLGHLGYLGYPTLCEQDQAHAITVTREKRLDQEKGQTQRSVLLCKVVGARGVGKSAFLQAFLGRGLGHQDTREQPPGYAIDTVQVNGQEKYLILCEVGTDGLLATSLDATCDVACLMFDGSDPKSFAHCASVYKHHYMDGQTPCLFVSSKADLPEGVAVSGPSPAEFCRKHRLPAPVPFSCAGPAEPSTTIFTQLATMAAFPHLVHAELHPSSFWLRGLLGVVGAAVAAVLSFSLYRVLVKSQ

O=C(Nc1ccc(Nc2cc(-n3ccnc3)ncn2)cc1)Nc1cccc(F)c1 [Miro1 Reducer]
influence on Miro2: no influence
